Values quoted from earlier work, collected in article PMC12729893, “Untargeted UHPLC-HRMS Metabolomic Profiling of Cornus mas L. Fruits: Impact of Conventional and Emerging Extraction Methods on Phenolic Composition and Bioactivity” (Antioxidants, 2025).

Assays:
[1] = tested on: α-glucosidase
[2] = tested on: α-amylase

For O=c1oc2c(O)c(O)cc3c(=O)oc4c(O)c(O)cc1c4c23 [ellagic acid], the “α-glucosidase inhibition according to computational analysis” value [1] is listed as “most effective inhibitors” and the “α-amylase inhibition according to computational analysis” value [2] is listed as “most effective inhibitors”.
In the case of C[C@@H]1O[C@@H](OC[C@H]2O[C@@H](Oc3cc4c(O)cc(O)cc4[o+]c3-c3ccc(O)cc3)[C@H](O)[C@@H](O)[C@H]2O)[C@H](O)[C@H](O)[C@H]1O [pelargonidin 3-robinobioside], the “α-glucosidase inhibition according to computational analysis” value [1] is listed as “most potent inhibitor”.
